Counter-ions that a name gives are not always drawn.
Assays:
[1] = tested on: passively sensitized SART stressed guinea pigs; experiment: Nasal secretion (dyed thread length) after nasal provocation with ovalbumin in passively sensitized SART stressed guinea pigs; assay type: in vivo, guinea pig (male Hartley strain); conditions: for Inhibition: inhibition of nasal secretion vs control
Description: Male Hartley strain guinea pigs weighing 300 to 500 g were used. The threshold of nasal mucosal sensitivity to methacholine of these animals was previously measured with a nasal thread dyed with fluorescein, and those guinea pigs having normal sensitivity were divided into groups of 7 or 8 animals making the average of the threshold of sensitivity substantially equal in each group. To load SART stress, the guinea pigs were kept in a thermostatic box at the environmental temperature of 0° C. and 24° C. alternately for one hour period from 10:00 a.m. to 5:00 p.m., and at 0° C. from 5:00 p.m. to 10:00 a.m. the next day. This stress loading was continued for 5 days prior to sensitization. The stress-loaded guinea pigs from the previous example were sensitized intraperitoneally using 20 μg of ovalbumin and 10 mg of aluminum hydroxide (adjuvant) in 1 ml of saline 7 times every 2 weeks. After 2 weeks of the sensitization, airway sensitization was performed by ultranebulization with 3 ml of 0.1% ovalbumin in saline for 5 consecutive days. One week later, nasal provocation was performed by application of 50 μl of 1% ovalbumin in saline on both anterior nares, and antiserum was collecting from guinea pigs showing typical nasal symptoms of nasal allergy such as sneeze, nasal secretion and asthma. This anti-ovalbumin serum was preserved at -80° C. The provocation was made by application of 50 μl of 1% ovalbumin on the left anterior naris 2 days after passive sensitization by intraperitoneally injecting 2 ml of diluted anti-ovalbumin serum from the previous example (diluted ratio;×1/8). […] Defatted cotton threads (No. 40/2) were dyed with 10% fluorescein-Na in physiological saline at one end, and were cut to a total length of 100 mm with the colored end 10 mm in length. About 15 mm of the colored end of the thread was inserted into the left anterior naris of the guinea pigs for 60 sec. The length of thread dyed with fluorescein due to nasal secretion was taken as a measure of the amount of nasal secretion. (A few threads can be used together when the amount of nasal secretion is large). […] The amount of nasal secretion was measured by the length of the colored portion of the thread dyed with fluorescein.

[2] = tested on: actively sensitized guinea pigs; experiment: Nasal secretion on repeated nasal provocations with ovalbumin in actively sensitized guinea pigs; assay type: in vivo, guinea pig; conditions: 1.0 mg/kg/day p.o.
Description: Active sensitization was carried out in a manner similar to the preparation of anti-ovalbumin serum mentioned above. Namely, 1 μg ovalbumin and 5 mg of aluminum hydroxide (adjuvant) in 1 ml of saline were injected into guinea pigs intraperitoneally 6 times every 2 weeks.
Two weeks after the active sensitization with ovalbumin, 50 μl of 1% ovalbumin in saline was administered into both anterior nares to start nasal provocation with allergen. Then the nasal provocations with ovalbumin were repeated 1, 4, 7, 10 and 13 days after the first provocation.
Defatted cotton threads (No. 40/2) were dyed with 10% fluorescein-Na in physiological saline at one end, and were cut to a total length of 100 mm with the colored end 10 mm in length. About 15 mm of the colored end of the thread was inserted into the left anterior naris of the guinea pigs for 60 sec. The length of thread dyed with fluorescein due to nasal secretion was taken as a measure of the amount of nasal secretion. (A few threads can be used together when the amount of nasal secretion is large).
Enhanced nasal mucosal sensitivity was measured by using animals obtained by repeated nasal provocations with ovalbumin in actively sensitized guinea pigs with the allergen according to the method of Examples 4, 5 and 6. The inhibitory action for nasal secretion of Ketotifen fumarate (1.0 mg/kg/day, p.o.) was also measured using this assay system.

[3] = Ketotifen fumarate 0.3 mg/kg/day p.o.
[4] = Ketotifen fumarate 1.0 mg/kg/day p.o.
[5] = Ketotifen fumarate 3.0 mg/kg/day p.o.

`CN1CCC(=C2c3ccccc3CC(=O)c3sccc32)CC1` [Ketotifen, Ketotifen fumarate] showed a Nasal secretion [1, 3] of 33.5 mm, a Nasal secretion [1, 4] of 23.9 mm and a Nasal secretion [1, 5] of 16.1 mm. The Inhibition [1, 3] was 25.5%, the Inhibition [1, 4] was 46.9% and the Inhibition [1, 5] was 64.2%. It also gave a Nasal secretion ([2]; 1st provocation with allergen) of 68.9 mm, a Nasal secretion ([2]; 2nd provocation with allergen (1 day)) of 54.1 mm and a Nasal secretion ([2]; 3rd provocation with allergen (4 days)) of 73.0 mm. It also gave a Nasal secretion ([2]; 4th provocation with allergen (7 days)) of 68.5 mm, a Nasal secretion ([2]; 5th provocation with allergen (10 days)) of 77.3 mm and a Nasal secretion ([2]; 6th provocation with allergen (13 days)) of 96.9 mm.

— patent publication US5063045A, “Method for evaluating antiallergic substances” (Nippon Zoki Pharmaceutical Co., Ltd., priority 1989, dated 1991)
